# Source: patent US5464826A, “Method of treating tumors in mammals with 2',2'-difluoronucleosides” (Eli Lilly and Company, priority 1994, dated 1995)
# Legend:
# 6C3HED lymphosarcoma = 6C3HED lymphosarcoma tumor model; type: in vivo, mice (C3H); conditions: IP
# Text: 6C3HED--The 6C3HED lymphosarcoma was obtained in 1979 from the Division of Cancer Treatment, N.C.I., tumor bank maintained at E.G. and G. Mason Research (Worchester, Mass.). First passage tumor was stored in liquid nitrogen using standard techniques. The transplanted tumor was re-established from the tumor bank every six months or as needed. The tumor is maintained by serial passage twice weekly in C3H mice (Charles River; Wilmington, Mass.).
# (§1) The tumor was removed from passage animals and minced into 1 to 3 mm square fragments using sterile techniques. Tumor pieces were checked for sterility using both Antibiotic Medium 1 and Brain Heart Infusion (Difco; Detroit, Mich.). Recipient mice were shaved and tumor pieces were implanted subcutaneously in the axillary region by trocar. Drug therapy on the appropriate schedule was initiated on the day after tumor implant. The compound was dissolved in saline for all experiments. All animals were weighed at the beginning and end of drug treatment. Food and water were provided ad libitum. On days 10 to 12, two dimensional measurements (width and length) of all tumors were taken using vernier calipers. Tumor weights were calculated from these measurements using the following formula:
# (§2) Tumor Weight (mg)=Tumor Length (mm)×Tumor Width (mm)^2 /2
# (§3) For all data, the tumor weight was rounded to the nearest tenth of a gram for analysis. No group is included in the analysis for therapeutic activity in which deaths attributable to drug toxicity exceeded 30 percent of the treated group.
# (§4) In Table 3 which follows, column 1 gives the example number of the compound tested; column 2 provides the tumor system; column 3, the dose level; column 4, the route administered; column 5, the dosage schedule; column 6, the percent inhibition of the tumor; and column 7, the toxic deaths observed prior to completion of the study.
# [1] = test system: L1210V lymphocytic leukemia; test: L1210V Lymphocytic Leukemia Tumor System; type: in vivo, mice; conditions: for Indefinite Survivors: 45 day survivors; for Toxic Deaths: deaths/mice in group
# Procedure: The study testing the efficacy of these compounds against L1210V leukemia was initiated by an IP inoculation of 1×10^6 cells. Treatment was begun 24 hours after inoculation. The response to therapy was determined by comparing the mean life span of the ten treated animals to that of the ten control animals; prolongation of life in the treated animals beyond that of controls is expressed as a percentage. In the Table, column 1 gives the example number of the compound tested; column 2, the experiment number; column 3, the dose level of the compound in mg/kg; column 4, the route of administration; column 5, the dosage schedule, that is, the days on which the compound was administered to the mice; column 6, the average increase in life span of the treated mice as compared to the control mice; column 7, the toxic deaths over the number of mice in each group; and column 8, the indefinite survivors, that is, the number of 45 day survivors in each group.
# [2] = test system: 6C3HED, CA755, P1534J, X5563; test: additional tumor test systems (summary statement); type: in vivo, mice; conditions: systems include 6C3HED
# Text: These systems include the 6C3HED lymphosarcoma, also known as the Gardner lymphosarcoma (6C3HED); the CA-755 adenocarcinoma (CA755); the P1534J lymphatic leukemia (P1534J); and the X5563 plasma cell myeloma (X5563). Each of these systems is described in detail below.
# as §1, with “formula: […]” for “formula:”
# [3] = test system: X5563 plasma cell myeloma; test: X5563 plasma cell myeloma tumor model; type: in vivo, mice (C3H); conditions: IP, Days 1,5,9
# Text: X5563 Myeloma--the tumor is maintained in C3H mice.
# as §1, §2, §3, §4
# [4] = Experiment 1, 1.25 mg/kg, IP, Days 1,5,9
# [5] = Experiment 1, 2.5 mg/kg, IP, Days 1,5,9
# [6] = Experiment 1, 5.0 mg/kg, IP, Days 1,5,9
# [7] = Experiment 1, 10.0 mg/kg, IP, Days 1,5,9
# [8] = Experiment 1, 20.0 mg/kg, IP, Days 1,5,9
# [9] = Experiment 2, 0.5 mg/kg, IP, Daily for 10 Days
# [10] = Experiment 2, 1.0 mg/kg, IP, Daily for 10 Days
# [11] = Experiment 2, 2.0 mg/kg, IP, Daily for 10 Days
# [12] = Experiment 3, 25.0 mg/kg, IP, Day 1 only
# [13] = Experiment 3, 50.0 mg/kg, IP, Day 1 only
# [14] = Experiment 3, 100.0 mg/kg, IP, Day 1 only
# [15] = Experiment 3, 200.0 mg/kg, IP, Day 1 only
# [16] = Experiment 4, 0.5 mg/kg, PO, Daily for 10 days
# [17] = Experiment 4, 1.0 mg/kg, PO, Daily for 10 days
# [18] = Experiment 4, 2.0 mg/kg, PO, Daily for 10 days
# [19] = Experiment 4, 4.0 mg/kg, PO, Daily for 10 days
# [20] = Experiment 5, 0.5 mg/kg, IP, Daily for 9 days
# [21] = Experiment 5, 1.0 mg/kg, IP, Daily for 9 days
# [22] = Experiment 5, 2.0 mg/kg, IP, Daily for 9 days
# [23] = Experiment 5, 4.0 mg/kg, IP, Daily for 9 days
compound,measurement,setting,value
"Nc1ccn(C2O[C@H](CO)[C@@H](O)C2(F)F)c(=O)n1 (some centres unmarked) [Example 1, 1-(4-Amino-2-oxo-1H-pyrimidin-1-yl)-2-desoxy-2,2-difluororibose]",Percent Inhibition of Tumor,"6C3HED lymphosarcoma; 0.05 mg/kg, Daily for 8 Days",0%
same,Toxic Deaths,"6C3HED lymphosarcoma; 0.05 mg/kg, Daily for 8 Days",0/10
same,Percent Inhibition of Tumor,"6C3HED lymphosarcoma; 0.1 mg/kg, Daily for 8 Days",0%
same,Toxic Deaths,"6C3HED lymphosarcoma; 0.1 mg/kg, Daily for 8 Days",0/10
same,Percent Inhibition of Tumor,"6C3HED lymphosarcoma; 0.2 mg/kg, Daily for 8 Days",0%
same,Toxic Deaths,"6C3HED lymphosarcoma; 0.2 mg/kg, Daily for 8 Days",0/10
same,Percent Inhibition of Tumor,"6C3HED lymphosarcoma; 0.4 mg/kg, Daily for 8 Days",8%
same,Toxic Deaths,"6C3HED lymphosarcoma; 0.4 mg/kg, Daily for 8 Days",0/10
same,Percent Inhibition of Tumor,"6C3HED lymphosarcoma; 1.25 mg/kg, Days 1,5,9",0%
same,Toxic Deaths,"6C3HED lymphosarcoma; 1.25 mg/kg, Days 1,5,9",0/7
same,Percent Inhibition of Tumor,"6C3HED lymphosarcoma; 2.5 mg/kg, Days 1,5,9",1%
same,Toxic Deaths,"6C3HED lymphosarcoma; 2.5 mg/kg, Days 1,5,9",0/7
same,Percent Inhibition of Tumor,"6C3HED lymphosarcoma; 5.0 mg/kg, Days 1,5,9",49%
same,Toxic Deaths,"6C3HED lymphosarcoma; 5.0 mg/kg, Days 1,5,9",0/7
same,Percent Inhibition of Tumor,"6C3HED lymphosarcoma; 10.0 mg/kg, Days 1,5,9",88%
same,Toxic Deaths,"6C3HED lymphosarcoma; 10.0 mg/kg, Days 1,5,9",0/7
same,Percent Inhibition of Tumor,"6C3HED lymphosarcoma; 20.0 mg/kg, Days 1,5,9",95%
same,Toxic Deaths,"6C3HED lymphosarcoma; 20.0 mg/kg, Days 1,5,9",0/7
same,Percent Increase Life Span,[1]; [4],50%
same,Indefinite Survivors,[1]; [4],0
same,Toxic Deaths,[1]; [4],0/10
same,Percent Increase Life Span,[1]; [5],60%
same,Indefinite Survivors,[1]; [5],0
same,Toxic Deaths,[1]; [5],0/10
same,Percent Increase Life Span,[1]; [6],66%
same,Indefinite Survivors,[1]; [6],0
same,Toxic Deaths,[1]; [6],0/10
same,Percent Increase Life Span,[1]; [7],66%
same,Indefinite Survivors,[1]; [7],0
same,Toxic Deaths,[1]; [7],1/10
same,Percent Increase Life Span,[1]; [8],60%
same,Indefinite Survivors,[1]; [8],0
same,Toxic Deaths,[1]; [8],0/10
same,Percent Increase Life Span,[1]; [9],13%
same,Indefinite Survivors,[1]; [9],0
same,Toxic Deaths,[1]; [9],0/10
same,Percent Increase Life Span,[1]; [10],0%
same,Indefinite Survivors,[1]; [10],0
same,Toxic Deaths,[1]; [10],0/10
same,Percent Increase Life Span,[1]; [11],0%
same,Indefinite Survivors,[1]; [11],0
same,Toxic Deaths,[1]; [11],0/10
same,Percent Increase Life Span,[1]; [12],23%
same,Indefinite Survivors,[1]; [12],0
same,Toxic Deaths,[1]; [12],0/10
same,Percent Increase Life Span,[1]; [13],30%
same,Indefinite Survivors,[1]; [13],0
same,Toxic Deaths,[1]; [13],0/10
same,Percent Increase Life Span,[1]; [14],26%
same,Indefinite Survivors,[1]; [14],0
same,Toxic Deaths,[1]; [14],0/10
same,Percent Increase Life Span,[1]; [15],34%
same,Indefinite Survivors,[1]; [15],0
same,Toxic Deaths,[1]; [15],0/10
same,Percent Increase Life Span,[1]; [16],8%
same,Indefinite Survivors,[1]; [16],0
same,Toxic Deaths,[1]; [16],0/10
same,Percent Increase Life Span,[1]; [17],15%
same,Indefinite Survivors,[1]; [17],0
same,Toxic Deaths,[1]; [17],0/10
same,Percent Increase Life Span,[1]; [18],18%
same,Indefinite Survivors,[1]; [18],0
same,Toxic Deaths,[1]; [18],1/10
same,Percent Increase Life Span,[1]; [19],2%
same,Indefinite Survivors,[1]; [19],0
same,Toxic Deaths,[1]; [19],4/10
same,Percent Increase Life Span,[1]; [20],74%
same,Indefinite Survivors,[1]; [20],0
same,Toxic Deaths,[1]; [20],0/10
same,Percent Increase Life Span,[1]; [21],104%
same,Indefinite Survivors,[1]; [21],0
same,Toxic Deaths,[1]; [21],0/10
same,Percent Increase Life Span,[1]; [22],136%
same,Indefinite Survivors,[1]; [22],0
same,Toxic Deaths,[1]; [22],0/10
same,Percent Increase Life Span,[1]; [23],44%
same,Indefinite Survivors,[1]; [23],0
same,Toxic Deaths,[1]; [23],0/10
same,activity in additional tumor test systems (in words),[2],demonstrated activity in additional tumor test systems
same,Percent Inhibition of Tumor,[3]; 1.25 mg/kg,11%
same,Toxic Deaths,[3]; 1.25 mg/kg,1/10
same,Percent Inhibition of Tumor,[3]; 2.5 mg/kg,52%
same,Toxic Deaths,[3]; 2.5 mg/kg,1/10
same,Percent Inhibition of Tumor,[3]; 5.0 mg/kg,89%
same,Toxic Deaths,[3]; 5.0 mg/kg,0/10
same,Percent Inhibition of Tumor,[3]; 10.0 mg/kg,98%
same,Toxic Deaths,[3]; 10.0 mg/kg,0/10
same,Percent Inhibition of Tumor,[3]; 20.0 mg/kg,100%
same,Toxic Deaths,[3]; 20.0 mg/kg,0/10
